Values after ≈ are worked out from the molar mass of the structure shown.

The nature of series [1]: Lipophilicity, log P of the compound. It counts as physicochemical. The conditions noted are these: octanol/water.
Series [2] concerns the target T1, ATP-dependent translocase ABCB1 (Homo sapiens, UniProt P08183). Put plainly: Reversal of P-glycoprotein-mediated multidrug resistance in human MDR1 gene transfected mouse L5178 cells assessed as mean fluorescence intensity at 4 ug/ml by rhodamine-123 exclusion test. It counts as cell-based.
The target of series [3] is T1, ATP-dependent translocase ABCB1. Put plainly: Reversal of P-glycoprotein-mediated multidrug resistance in human MDR1 gene transfected mouse L5178 cells assessed as fluorescence activity ratio at 4 ug/ml by rhodamine-123 exclusion test. It counts as cell-based.
The nature of series [4]: Antiproliferative activity against parental mouse L5178 cells after 72 hrs MTT assay. The class given is functional. The conditions noted are these: L5178, 72 h, read-out: ID50 (the source's name).
Series [5] in a line: Potentiation of epirubicin-induced cytotoxicity against mouse L5178 cells assessed as fractional inhibitory index by checkerboard microplate method. It counts as functional.
Series [6] concerns the target T1, ATP-dependent translocase ABCB1. Put plainly: Reversal of P-glycoprotein-mediated multidrug resistance in human MDR1 gene transfected mouse L5178 cells assessed as fluorescence activity ratio at 40 ug/ml by flow cytometry. The class given is cell-based.
Series [7] in a line: Antiproliferative activity against multidrug-resistant mouse L5178 cells after 72 hrs MTT assay. The conditions noted are these: L5178, 72 h, read-out: ID50 (the source's name). The class given is functional.
The target of series [8] is T1, ATP-dependent translocase ABCB1. Put plainly: Reversal of P-glycoprotein-mediated multidrug resistance in human MDR1 gene transfected mouse L5178 cells assessed as mean fluorescence intensity at 40 ug/ml by rhodamine-123 exclusion test. It counts as cell-based.

T1 sequence (P08183 whole entry): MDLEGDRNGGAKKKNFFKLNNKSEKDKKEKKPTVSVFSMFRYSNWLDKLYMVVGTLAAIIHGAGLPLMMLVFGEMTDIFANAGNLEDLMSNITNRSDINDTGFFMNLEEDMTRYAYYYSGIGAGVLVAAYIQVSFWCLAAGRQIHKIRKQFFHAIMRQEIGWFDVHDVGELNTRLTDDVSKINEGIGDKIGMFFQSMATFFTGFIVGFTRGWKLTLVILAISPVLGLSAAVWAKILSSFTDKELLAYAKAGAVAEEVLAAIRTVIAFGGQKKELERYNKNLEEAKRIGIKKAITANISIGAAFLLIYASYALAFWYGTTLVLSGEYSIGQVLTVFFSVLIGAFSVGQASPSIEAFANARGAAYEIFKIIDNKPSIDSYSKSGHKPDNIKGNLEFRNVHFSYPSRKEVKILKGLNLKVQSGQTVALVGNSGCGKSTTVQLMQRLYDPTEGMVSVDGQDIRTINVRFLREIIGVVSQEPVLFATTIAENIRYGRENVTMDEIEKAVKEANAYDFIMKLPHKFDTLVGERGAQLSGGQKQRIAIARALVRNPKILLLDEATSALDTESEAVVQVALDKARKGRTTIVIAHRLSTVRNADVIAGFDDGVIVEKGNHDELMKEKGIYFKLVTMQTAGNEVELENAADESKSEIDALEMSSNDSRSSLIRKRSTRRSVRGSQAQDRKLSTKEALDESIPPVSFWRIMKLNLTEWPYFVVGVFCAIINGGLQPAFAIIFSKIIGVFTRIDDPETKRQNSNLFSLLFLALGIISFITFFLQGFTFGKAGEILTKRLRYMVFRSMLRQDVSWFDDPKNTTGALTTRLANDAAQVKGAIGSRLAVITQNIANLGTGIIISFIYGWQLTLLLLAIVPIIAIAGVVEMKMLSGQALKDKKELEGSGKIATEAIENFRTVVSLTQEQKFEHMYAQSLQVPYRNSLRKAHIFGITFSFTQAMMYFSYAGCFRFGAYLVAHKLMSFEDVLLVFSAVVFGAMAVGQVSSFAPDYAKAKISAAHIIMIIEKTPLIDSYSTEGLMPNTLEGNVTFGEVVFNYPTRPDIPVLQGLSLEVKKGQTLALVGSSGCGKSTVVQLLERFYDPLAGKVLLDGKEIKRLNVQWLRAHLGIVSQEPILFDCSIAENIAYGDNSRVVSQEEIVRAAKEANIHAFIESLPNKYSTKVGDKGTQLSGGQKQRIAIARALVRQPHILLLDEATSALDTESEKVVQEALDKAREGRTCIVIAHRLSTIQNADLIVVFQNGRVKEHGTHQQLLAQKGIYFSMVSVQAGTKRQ

Compound `C=C1[C@@H](OC(=O)c2ccccc2)[C@@H](OC(C)=O)[C@@H](OC(C)=O)C(C)(C)/C=C/[C@H](C)C(=O)[C@@]2(OC(C)=O)C[C@@](C)(OC(=O)c3ccccc3)[C@H](OC(C)=O)[C@@H]2[C@H]1OC(C)=O` [EUPHOTUCKEYANOL] displayed a logP in series [1] of 6.7. In addition, the Flu intensity is given as 1127.4 in series [2] and 1476.7 in series [8]. Besides, the Ratio came to 81 in series [3] and 106.2 in series [6]. The IC50 came out at 45 µg/mL (≈ 55 µM) in series [4] and 22.8 µg/mL (≈ 27.8 µM) in series [7]. Further, the “fractional inhibitory concentration index (FICI)” value in series [5] was determined as 0.08.

In series [1], `C/C1=C\[C@@H]2[C@H](CC[C@@]3(C)O[C@@H]3[C@H]3[C@@H](O)[C@@H](C)C[C@]3(OC(=O)/C=C/c3ccccc3)C1=O)C2(C)C` [JOLKINOL B] yielded a lipophilicity (logP) of 5.8.

`CC(=O)OC[C@H]1C[C@]2(OC(=O)/C=C/c3ccccc3)C(=O)/C(C)=C/[C@@H]3[C@H](CC[C@@]4(C)O[C@@H]4[C@H]2[C@H]1O)C3(C)C` [LATILAGASCENE A] returned a logP in series [1] of 5.5.

Regarding `C/C1=C\[C@@H]2[C@H](CC[C@@]3(C)O[C@@H]3[C@H]3[C@@H](O)[C@@H](CO)C[C@]3(OC(=O)/C=C/c3ccccc3)C1=O)C2(C)C` [LATILAGASCENE B], the logP in series [1] is 4.8.

`CC(=O)OC[C@H]1C[C@]2(OC(=O)/C=C/c3ccccc3)C(=O)/C(C)=C/[C@@H]3[C@H](CC[C@@]4(C)O[C@@H]4[C@H]2[C@H]1OC(C)=O)C3(C)C` [LATILAGASCENE C]: the logP in series [1] is 6.2.

`C/C1=C\[C@@H]2[C@H](CC[C@@]3(C)O[C@@H]3[C@H]3[C@@H](O)[C@@H](COC(=O)c4ccccc4)C[C@]3(OC(=O)/C=C/c3ccccc3)C1=O)C2(C)C` [LATILAGASCENE D] returned a logP in series [1] of 7.2.

For the compound `CC1(C)[C@@H]2/C=C(\CO)C(=O)[C@@]3(OC(=O)/C=C/c4ccccc4)C[C@H](COC(=O)c4ccccc4)[C@H](O)[C@@H]3[C@H]3O[C@]3(C)CC[C@@H]21` [LATILAGASCENE E], the log partition coefficient (logP) in series [1] stood at 5.9.

The compound `C/C1=C\[C@@H]2[C@H](CC[C@@]3(C)O[C@@H]3[C@H]3[C@@H](O)[C@@H](C)C[C@]3(OC(=O)c3ccccc3)C1=O)C2(C)C` [LATILAGASCENE F] had a logP in series [1] of 5.3.

Consider `CC(=O)O[C@H]1[C@@H](COC(=O)c2ccccc2)C[C@]2(OC(=O)/C=C/c3ccccc3)C(=O)/C(C)=C/[C@@H]3[C@H](CC[C@@]4(C)O[C@@H]4[C@@H]12)C3(C)C` [LATILAGASCENE G], for which, in series [1], the logP was 7.9. Moreover, the Flu intensity in series [2] stood at 478.3; in series [8], 496.6. Further, the Ratio in series [3] came out at 68.9; in series [6], 71.6. The IC50 in series [4] worked out at 32.2 µg/mL (≈ 51.4 µM); in series [7] it was 28 µg/mL (≈ 44.7 µM). In series [5], the “fractional inhibitory concentration index (FICI)” value turned out to be 0.14.

`CCC(=O)OC[C@H]1C[C@]2(OC(=O)/C=C/c3ccccc3)C(=O)/C(C)=C/[C@@H]3[C@H](CC[C@@]4(C)O[C@@H]4[C@H]2[C@H]1OC(=O)CC)C3(C)C` [LATILAGASCENE H] gave a log partition coefficient (logP) in series [1] of 6.9. Further, the Flu intensity was 427.4 in series [2] and 541.3 in series [8]. For the same compound, the Ratio in series [3] worked out at 61.6; in series [6], 78. Also, the IC50 in series [4] came to 25.3 µg/mL (≈ 42.7 µM); in series [7], 17.5 µg/mL (≈ 29.5 µM). For the same compound, in series [5], the “fractional inhibitory concentration index (FICI)” value worked out at 0.07.

In series [1], `CCCC(=O)OC[C@H]1C[C@]2(OC(=O)/C=C/c3ccccc3)C(=O)/C(C)=C/[C@@H]3[C@H](CC[C@@]4(C)O[C@@H]4[C@H]2[C@H]1OC(=O)CCC)C3(C)C` [LATILAGASCENE I] gave a lipophilicity (logP) of 8. For the same compound, the figures for the Flu intensity in series [2] and in series [8] were 433.4 and 376.5, respectively. The results for the Ratio in series [3] and in series [6] were 62.4 and 54.2, respectively. Also, the values for the IC50 in series [4] and in series [7] were 23.9 µg/mL (≈ 38.5 µM) and 17.3 µg/mL (≈ 27.9 µM), respectively. The “fractional inhibitory concentration index (FICI)” value in series [5] was determined as 0.14.

With `C=C1[C@@H](OC(=O)C(C)CC)[C@@H](OC(C)=O)C(=O)C(C)(C)/C=C/[C@H](C)[C@H](OC(=O)c2ccccc2)[C@@]2(O)C[C@H](C)[C@H](OC(C)=O)[C@@H]2[C@H]1OC(C)=O` (stereo not given in full) [TUCKEYANOL A], the logP in series [1] is 4.5. For the same compound, the Flu intensity stood at 554 in series [2] and 1375.6 in series [8]. Also, the Ratio came out at 39.8 in series [3] and 98.9 in series [6]. Also, the IC50 in series [4] was 25.8 µg/mL (≈ 36.9 µM); in series [7], 17.6 µg/mL (≈ 25.2 µM). Besides, the “fractional inhibitory concentration index (FICI)” value in series [5] was found to be 0.18.

`C=C1[C@@H](OC(=O)C(C)C)[C@@H](OC(C)=O)C(=O)C(C)(C)/C=C/[C@H](C)[C@H](OC(=O)c2ccccc2)[C@@]2(O)C[C@H](C)[C@H](OC(C)=O)[C@@H]2[C@H]1OC(C)=O` [TUCKEYANOL B] came in with a logP in series [1] of 4. For the same compound, the Flu intensity in series [2] is given as 347.6; in series [8] it was 1353.2. The values for the Ratio in series [3] and in series [6] were 25 and 97.3, respectively. The IC50 amounted to 19.4 µg/mL (≈ 28.3 µM) in series [4] and 12 µg/mL (≈ 17.5 µM) in series [7]. The “fractional inhibitory concentration index (FICI)” value in series [5] is 0.25.

Values taken from ChEMBL document CHEMBL1142477, “Synergistic interaction between p-glycoprotein modulators and epirubicine on resistant cancer cells” (Bioorg Med Chem, 2008).
